Reference: patent US7589080B2, “β-cyclodextrin compositions, and use to prevent transmission of sexually transmitted diseases” (priority 2000, dated 2009)

Columns and labels:
vaginal epithelium = experiment: Vaginal epithelial toxicity (ethidium bromide homodimer-1 staining); type: in vivo, CF-1 mice; details: 1% (w/v), intravaginal, 15 min
Method: CF-1 mice were pretreated with 2.5 mg progestin; one week later, three groups of three mice each were inoculated with 50 Tl of either PBS, 1% (w/v) nonoxynol-9, or 3% (w/v) 2-OH-βCD (20 mM). Each test solution also contained the membrane-impermeant DNA binding fluorescent dye, ethidium bromide homodimer-1 (20 TM, Molecular Probes; Eugene Oreg.; Hyytinen et al., supra, 1994). Fifteen min following exposure to the test agents the mice were euthanized, the vaginas were dissected and opened longitudinally, and viewed using a fluorescent microscope and TRITC filter set.
To examine the effect of a βCD on the vaginal epithelium, CF-1 mice were pretreated with progesterone and one week later were inoculated with 50 Tl of either phosphate buffered saline (PBS), 1% (w/v) nonoxynol-9, or 3% (w/v) 2-OH-βCD (20 mM) containing the membrane impermeant DNA binding fluorescent dye, ethidium bromide homodimer-1. The vaginas of the mice were viewed by fluorescent microscopy.

HIV = details: inhibition of sphingolipid synthesis; cited from earlier work

Row | Molecule | Damage to vaginal epithelium (vaginal epithelium) | Reduction of HIV infection of CD4+ human cells (HIV)
1 | nonoxynol-9 | considerable epithelial damage | –
2 | CCCCCCCCCCCCCCCC(=O)NC(CN1CCOCC1)C(O)c1ccccc1 (centres unmarked) [PPMP, 1-phenyl-2-hexadecanoylamino-3-morpholino-1-propanol] | – | 50%
